The record followed here is US9526766B2, “Potentiation of antibiotic treatment with a protein-lipid complex” (priority 2012, dated 2016).

“Also recorded” adds a separate entry of the source. Where two headings read alike, the source gives them in different places. Bounds are passed on as bounds.

One may read the MIC as the smallest concentration in the dilution series that meets the test's criterion for growth inhibition.

One assay relates to Staphylococcus aureus. The experiment in a line: MIC by broth microdilution, antibiotics with and without ALAFAC. Type of assay: cell-based. Conditions: antibiotic alone. How it is done:
Methodology: Minimal inhibitory concentrations (MICs) were determined in 96-well microtiter plates using the microdilution method according to approved standards of the CLSI except that Todd-Hewitt medium supplemented with 0.5% yeast extract, which yields reproducible MIC results was used as the test medium for S. pneumoniae. For the remaining species Mueller-Hinton medium was used as indicated by the CLSI standard. Each well contained two-fold dilutions of antibiotic, was seeded with a final bacterial concentration of 10^5 CFU/mL, and was incubated for 18 h at 37° C. in a Synergy II microplate reader (Biotek, Winooski, Vt.) where the OD600 was recorded every 5 minutes to monitor bacterial growth. The MIC was defined as the lowest concentration of antimicrobial agent solution at which no increase in OD600 was detected.
In vitro susceptibility tests. Minimal inhibitory concentrations (MICs) were determined in 96-well microtiter plates using the microdilution method according to approved standards of the CLSI as described previously. However, rather than Mueller-Hinton broth, Tryptic soy broth (TSB) was used for susceptibility testing as it is the common media used for Staphylococcal growth, and as it has shown more consistent results for a variety of antimicrobials when tested against Staphylococci. […] A two-fold dilution series of antibiotics in triplicate and in the presence or absence of ALAFAC was prepared in 96 well microtiter plates, and each well was seeded with a final bacterial concentration of 10^5 CFU/mL, and was incubated for 24 h at 37° C. in a Synergy 2 microplate reader (Biotek, Winooski, Vt.) where the Optical Density at 600 nm (OD600) was recorded every 5 minutes to monitor bacterial growth. The MIC was defined as the lowest concentration of antimicrobial agent solution where no increase in OD600 was detected.
For orientation: Broth dilution looks for growth in wells or tubes with falling amounts of substance.

The test system of assay [1] is Staphylococcus aureus biofilms. The experiment in a line: Static biofilm model, viable counts. It is filed as cell-based. Conditions: for Biofilm death / reduction in biofilm biomass: methicillin 1,000 μg/ml monotherapy, combination with 100 μg/ml ALAFAC; for Minimum antibiotic concentration for bactericidal (>3 log10) activity on biofilms: 12 hours, antibiotic alone. How it is done:
Static Biofilm Model. Staphylococci were grown in TSB to mid-logarithmic phase (OD600=0.5), washed, and resuspended in fresh pre-warmed medium to a density of 2×10^4 CFU in 500 μl volume, and suspensions were used to seed polystyrene 24-well plates. Bacteria were cultured at 37° C. for 12 hours, after which biofilms were washed with PBS to eliminate planktonic bacteria and were exposed to TSB with indicated concentrations of ALAFAC and/or antibiotics for 24 hours at 37° C. Biofilms were then washed in PBS, sonicated and detached by scraping the surface in the presence of 100 μL PBS followed by a rinse with 100 μL PBS. Collected cells were vortexed twice for 20 seconds at high speed and the dispersed biofilm cells were first observed by microscopy to ensure proper dispersion and then diluted in a 10-fold dilution series where 100 μl of each dilution was plated on blood agar plates to determine viable CFUs per ml after overnight growth at 37° C. Colony counts from plates carrying 20-200 colonies were used to determine the viable counts and are reported as the total number of colony-forming units per biofilm.

Another assay relates to Streptococcus pneumoniae. As to the kind of experiment: Short-time kill assay on planktonic cultures. It is filed as cell-based. As to conditions: for Minimum antibiotic concentration for bactericidal (>3 log10) activity, planktonic: within 4-6 hours, antibiotic alone. The method, then:
Methodology: In late logarithmic growth phase, the bacteria were harvested by centrifugation at 12,000×g for 10 minutes and resuspended in phosphate-buffered saline (PBS; […], […], […], pH 7.4). Appropriate dilutions of the bacteria were suspended in PBS and treated with indicated concentrations of ALAFAC and/or antibiotics for various times. The effect on bacterial viability was assessed by plating serial dilutions of bacterial sample on tryptic soy agar plates containing 5% sheep blood (viable counts) and determining viable colony forming units after overnight growth at 37° C.
Short-time kill assays. In late logarithmic growth phase, the bacteria were harvested by centrifugation at 12,000×g for 10 minutes and resuspended in phosphate-buffered saline (PBS; 30 mM Na2HPO4, 10 mM KH2PO4, […], pH 7.4). Appropriate concentrations of the bacteria (around 10^8 colony forming units per ml) were suspended in PBS and treated with indicated concentrations of ALAFAC and/or antibiotics for various times. The effect on bacterial viability was assessed by plating serial dilutions of bacterial sample on tryptic soy agar plates containing 5% sheep blood (viable counts) and determining viable CFUs after overnight growth at 37° C.

Assay [2] concerns S. pneumoniae nasopharyngeal colonization. The experiment in a line: Murine nasopharyngeal colonization model, intranasal treatment. As to conditions: for Minimum antibiotic concentration for bactericidal (>3 log10) activity on murine nasopharyngeal colonization: mice, within 12 hours, antibiotic alone; for Colonization level / bacterial burden: mice colonized with SP670 for 48 hours, penicillin up to 100 μg (5,000 μg/ml) intranasally, ALAFAC 50 μg, alone or combined, 12 hours. Type of assay: in vivo, Streptococcus pneumoniae. How it is done:
Methodology: Six-week-old female BALB/cByJ mice from Jackson Laboratories (Bar Harbor, Me., U.S.A.) were maintained in filter-top cages on standard laboratory chow and water ad libitum until use. Mice were colonized as described previously. In short, 20 μl of a bacterial suspension containing 5×10^6 CFUs of EF3030 pneumococci, 1×10^8 CFUs of SP670 pneumococci, or 5×10^7 NRS70 methicillin-resistant S. aureus in PBS were pipetted into the nares of non-anesthetized mice. […] Colonization burden was then assessed after euthanizing the animals by enumerating viable bacteria from harvested nasopharyngeal tissue after the nasal wash. Nasopharyngeal tissue was dissected out as described by removing the upper skull bone, and harvesting the tissue present in the nasal conchae with forceps. Bacterial load was measured by determining viable plate counts from the homogenized tissue.
Mice were colonized as described. In short, 20 μl of a bacterial suspension containing 5×10^6 CFUs of EF3030 pneumococci in PBS or 1×10^8 CFUs of SP670 pneumococci in PBS were pipetted into the nares of non-anesthetized mice. […] Colonization burden was then assessed after euthanizing the animals by enumerating viable bacteria both in a nasopharyngeal lavage obtained by injecting 100 μL PBS in the trachea of mice and collecting it as it flowed out the nares, and from harvested nasopharyngeal tissue after the nasal wash. Nasopharyngeal tissue was dissected out as described by removing the upper skull bone, and harvesting the tissue present in the nasal conchae with forceps. Bacterial load was measured by determining viable plate counts from the nasal lavage or from homogenized tissue.

As for `COc1cccc(OC)c1C(=O)N[C@@H]1C(=O)N2[C@@H]1SC(C)(C)[C@@H]2C(=O)O` [Methicillin, methicillin], the minimal inhibitory concentration (MIC) in the assay with Staphylococcus aureus (Staphylococcus aureus, S. aureus 10307570, read-out: MIC) is 16 µg/mL; in the assay with Staphylococcus aureus (Staphylococcus aureus, S. aureus 11090306 (MSSA), read-out: MIC), 2 µg/mL; in the assay on Staphylococcus aureus (Staphylococcus aureus, S. aureus NRS1, read-out: MIC) it was greater than 128 µg/mL; in the assay on Staphylococcus aureus (Staphylococcus aureus, S. aureus NRS70, read-out: MIC), 32 µg/mL; in the assay with Staphylococcus aureus (Staphylococcus aureus, S. aureus NRS71, read-out: MIC), greater than 128 µg/mL; in the assay on Staphylococcus aureus (Staphylococcus aureus, S. aureus NRS100, read-out: MIC), greater than 128 µg/mL. Besides, the MIC in the assay with Staphylococcus aureus (Staphylococcus aureus, S. aureus NRS123, read-out: MIC) was found to be 32 µg/mL; in the assay on Staphylococcus aureus (Staphylococcus aureus, S. aureus NRS384, read-out: MIC), 16 µg/mL. In addition, in assay [1] (MRSA NRS 70 and MSSA 11090306 biofilms, 24 hours, ALAFAC 200 μg/mL (12 μM), methicillin 250 μg/mL (660 μM), alone or combined), the “Biofilm bactericidal activity, reduction in viable bacteria” value was “failed to induce bactericidal activity”. The figures for the “Biofilm death / reduction in biofilm biomass” value in assay [1] (MRSA NRS70 biofilm) and in assay [1] (MSSA 11090306 biofilm) were 0.16 log10 and 1 log10, respectively. Further, the “Minimum antibiotic concentration for bactericidal (>3 log10) activity on biofilms” value in assay [1] (S. aureus 11090306 biofilm) and in assay [1] (S. aureus NRS70 biofilm) was greater than 1000 μg/ml throughout.
Turning to `CC1(C)S[C@@H]2[C@H](NC(=O)Cc3ccccc3)C(=O)N2[C@H]1C(=O)O` [Penicillin, penicillin G], in the assay with Streptococcus pneumoniae (D39, 4 hours, ALAFAC 50 μg/ml, penicillin G 20 μg/ml, alone or combined, 7.5 log10 inoculum), the “Short-time killing (death of inoculum)” value is given as “no bactericidal activity; also recorded: no death”. For the same compound, the Short-time killing is listed as no more than 2.6 log10 in the assay on Streptococcus pneumoniae (D39, penicillin G alone at 5,000 μg/ml, 4 hours); no more than 2.6 log10 in the assay on Streptococcus pneumoniae (D39, penicillin alone at 50-fold higher concentration (1,000 μg/ml), 4 hours); “no bactericidal activity” with Streptococcus pneumoniae (SP670, penicillin 30 μg/mL alone or with ALAFAC 50 μg/mL, 4 hours). Also, the Bactericidal activity alone result with Streptococcus pneumoniae (D39 and EF3030, 1 hour, penicillin G up to 5,000 μg/ml, erythromycin up to 1,000 μg/ml) is recorded as “lacked any bactericidal activity”. Also, the “Minimum antibiotic concentration for bactericidal (>3 log10) activity, planktonic” value with Streptococcus pneumoniae (S. pneumoniae D39) and in the assay on Streptococcus pneumoniae (S. pneumoniae SP670) was >5,000 μg/ml each time. For the same compound, in assay [2] (SP670), the “Minimum antibiotic concentration for bactericidal (>3 log10) activity on murine nasopharyngeal colonization” value is recorded as greater than 100 μg/dose. For the same compound, the “Colonization level / bacterial burden” value is recorded as “no effect” in assay [2], “no effect” in assay [2] (listed as Penicillin G), “no effect; also recorded: completely resistant” in assay [2] (listed as penicillin) and “no change in colonization” in assay [2] (listed as penicillin G).
Take gentamicin: the minimal inhibitory concentration (MIC) with Staphylococcus aureus (S. aureus NRS1) was greater than 128 µg/mL; in the assay on Staphylococcus aureus (S. aureus NRS384) it was 1 µg/mL. In addition, the Short-time killing entry is “insignificant killing” with Streptococcus pneumoniae (D39, 1 hour, ALAFAC 50 μg/ml, gentamicin 50 μg/ml, alone or combined, 7.7 log10 inoculum); 1.4 log10 in the assay on Streptococcus pneumoniae (gentamicin alone at high concentrations, up to 1,000 μg/ml, 1 hour); no more than 1.4 log10 in the assay with Streptococcus pneumoniae (gentamicin alone at high concentrations, up to 1,000 μg/ml, 1 hour, listed as gentamicin). Besides, the “Minimum antibiotic concentration for bactericidal (>3 log10) activity, planktonic” value in the assay on Streptococcus pneumoniae (S. pneumoniae D39) and with Streptococcus pneumoniae (S. pneumoniae EF3030) was greater than 500 μg/ml each time. Besides, the Biofilm viability entry in assay [1] (NRS 1 and NRS 384 biofilms, ALAFAC 500 μg/ml (30 μM), gentamicin 50 μg/ml (105 μM), alone or combined) is “Neither ALAFAC (500 μg/ml; 30 μM) nor gentamicin (50 μg/ml; 105 μM) had any effect”. For the same compound, in assay [2] (EF3030, gentamicin alone), the “Dose concentration required to eradicate nasal lavage-associated bacteria” value is reported as 1,500 μg/ml. In addition, the “Minimum antibiotic concentration for bactericidal (>3 log10) activity on murine nasopharyngeal colonization” value in assay [2] (EF3030) worked out at 100 μg/dose. Further, the “Gentamicin dose at which reduction of bacterial burden starts” value in assay [2] (EF3030, nasal lavage, gentamicin alone) was determined as 3 μg/mouse; in assay [2] (EF3030, nasopharyngeal tissues, gentamicin alone), 10 μg/mouse.
